For the assay, the system named is human gel filtered platelets (GFP). The experiment in a line: Inhibition of ADP-induced, fibrinogen-dependent blood platelet aggregation in human gel filtered platelets (GFP). It is filed as cell-based. As to conditions: fibrinogen 0.5mg/ml, compounds incubated 5 minutes at 37°C, ADP 1 x 10⁻⁵M, concentration required to produce 50% inhibition of platelet aggregation, read-out: IC₅₀. How it is done:
Inhibition of blood platelet aggregation by compounds of the invention was determined according to the following procedure. Citrated whole blood (1 part 3.8% trisodium citrate: 9 parts blood) was obtained from human volunteers, free of medication for at least 10 days prior to collection. The blood was incubated with 0.1mM aspirin and 0.05µM prostacyclin and then centrifuged at 1000g for 4 minutes (20°C). The supernatant platelet rich plasma (PRP) was further centrifuged at 1300g for 10 minutes (20°C) to sediment the platelets. The supernatant was discarded and the pellet washed with a physiological salt solution (HEPES 5mM, NaHCO₃ 12mM, NaCl 140mM, KH₂PO₄ 0.74mM, D-Glucose 5.6mM, KCl 2.82mM and BSA 20g/l, pH 7.4) to remove residual plasma. After washing, the pellet was resuspended in physiological salt solution and then applied to a sepharose CL-2B column, pre-equilibrated with physiological salt solution at room temperature. The platelets (GFP) eluted within the void volume and were diluted to approximately 300,000 platelets/µl in buffer. Purified human fibrinogen (Knight L.C. et al, 1981 Thromb. Haemostasis, 46(3), 593-596) was added to a final concentration of 0.5mg/ml together with Ca2+ and Mg2+ at 1mM and 0.5mM respectively. […] The potency of the compounds may be expressed as an IC₅₀ value, defined as the concentration of compound required to produce 50% inhibition of platelet aggregation.

Structures can show the parent of a compound that is named as a salt.

On to `N=C(N)c1ccc(N2CCN(C3CCC(O)(CC(=O)O)CC3)CC2)c(Br)c1` (stereo not drawn) [Example 2, cis-4-[4-[4-(Aminoiminomethyl)-2-bromophenyl]-1-piperazinyl]-1-hydroxycyclohexaneacetic acid, trifluoroacetate salt], for which the IC50 is 945 nM. Regarding `N=C(N)c1ncc(N2CCN(C3CCC(O)(CC(=O)O)CC3)CC2)cn1` (stereo not drawn) [Example 3, cis-4-[4-[2-(Aminoiminomethyl)-5-pyrimidinyl]-1-piperazinyl]-1-hydroxycyclohexaneacetic acid, trifluoroacetate salt], the IC50 is 543 nM. As for `N=C(N)c1ccc(C2CCN(C3CCC(O)(CC(=O)O)CC3)CC2)cc1` (stereo not drawn) [Example 4, cis-4-[4-[4-(Aminoiminomethyl)phenyl]-1-piperidinyl]-1-hydroxycyclohexaneacetic acid, trifluoroacetate salt], the figure is 13 nM; as for `N=C(N)c1ccc(N2CCN([C@H]3CC[C@@](O)(CC(=O)O)CC3)CC2)cn1` [Example 5, cis-4-[4-[2-(Aminoiminomethyl)-5-pyridinyl]-1-piperazinyl]-1-hydroxycyclohexaneacetic acid, trifluoroacetate salt], 220 nM. As for `N=C(N)c1ccc(N2CCN(C3CCC(O)(CC(=O)O)CC3)CC2)c(-c2ccccc2)c1` (centres unmarked) [Example 6, trifluoroacetate salt], the figure is 1550 nM.

These data come from patent publication EP0537980A1, “Cyclohexaneacetic acid derivatives as inhibitors of fibrinogen-dependent blood platelet aggregation” (GLAXO GROUP LIMITED, priority 1991, dated 1993).
